This passage reports MIC and EC50 results from US12173018B2, “Penicillin-binding protein inhibitors” (priority 2018, dated 2024).

Values after ≈ are worked out from the molar mass of the structure shown. Like-named read-outs stand apart in the source and are kept apart here. Where only a bound is given, the exact number is not on record here.

One test concerns N. gonorrhoeae FA1090. As to the kind of experiment: Liquid broth MIC, N. gonorrhoeae FA1090. It counts as cell-based. The conditions noted are these: Neisseria gonorrhoeae. In outline: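 MIC taken by eye as the lowest well lacking growth after 40-42 h at 36° C under 5% CO2. Compounds were 2-fold serially diluted; the starting inoculum of 5×10^5 CFU/mL came from direct colony suspensions grown on Kellogg's-supplemented GC agar.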

For the next test, the target named is E. coli PBP3 (Escherichia coli (strain K12), UniProt P0AD68). As to the kind of experiment: E. coli PBP3 Bocillin-FL fluorescence polarization competition binding assay. An outline of the steps: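 This was a fluorescence polarization competition with fluorescent penicillin Bocillin-FL (0.1 μM final), read at 490/520 nm for 60 min immediately after its addition. The buffer was Hepes pH 8.0 with 300 mM NaCl and 5% glycerol, containing 1.5 μM PBP and test inhibitor up to 1000 μM. Potency is expressed as EC50 for reducing probe binding.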
Chain of E. coli PBP3 (P0AD68 whole entry): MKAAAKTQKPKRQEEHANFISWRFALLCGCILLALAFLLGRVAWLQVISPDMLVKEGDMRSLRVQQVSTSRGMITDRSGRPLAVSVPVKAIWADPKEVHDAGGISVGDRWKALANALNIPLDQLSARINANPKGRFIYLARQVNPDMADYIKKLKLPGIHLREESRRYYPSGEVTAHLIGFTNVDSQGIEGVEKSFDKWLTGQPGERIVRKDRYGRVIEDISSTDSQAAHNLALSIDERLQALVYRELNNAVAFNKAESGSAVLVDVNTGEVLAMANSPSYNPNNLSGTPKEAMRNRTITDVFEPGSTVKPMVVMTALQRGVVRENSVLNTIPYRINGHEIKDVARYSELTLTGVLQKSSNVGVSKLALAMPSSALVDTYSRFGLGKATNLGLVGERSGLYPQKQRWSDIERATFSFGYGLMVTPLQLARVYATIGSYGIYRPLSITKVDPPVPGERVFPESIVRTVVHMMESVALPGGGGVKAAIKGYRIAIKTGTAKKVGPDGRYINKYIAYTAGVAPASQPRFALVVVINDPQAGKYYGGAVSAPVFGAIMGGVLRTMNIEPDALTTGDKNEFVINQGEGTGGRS
In general terms: Fluorescence polarisation rises when a labelled molecule tumbles more slowly, as on binding a larger partner.

In another test the test system is P. aeruginosa ATCC 35151. As to the kind of experiment: microbe, parasite or virus in culture. Conditions: Pseudomonas aeruginosa. The test is classed as cell-based. An outline of the steps: (§1)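 CLSI broth microdilution in cation-supplemented Mueller-Hinton broth; 2-fold compound dilutions inoculated at 5×10^5 CFU/mL from a 3-5 h log-phase culture. Plates incubated 16-20 hours at 37° C; MIC read visually as lowest concentration with no growth.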

For test [1], the system named is P. aeruginosa (ΔmexAB-oprM). As to the kind of experiment: microbe, parasite or virus in culture. Conditions: Pseudomonas aeruginosa, read-out: MIC P. aeruginosa ΔmexAB-OprM. It counts as cell-based. In outline: as §1
For another test, the system named is A. baumannii ATCC 19606. As to the kind of experiment: Broth microdilution MIC, A. baumannii ATCC 19606. The test is classed as cell-based. Conditions: Acinetobacter baumannii. In outline:
as §1
In general terms: In broth dilution the organism is exposed to a series of concentrations in liquid medium.

Setting [2] is: N. gonorrhoeae FA1090, liquid broth, read-out: Minimum Inhibitory Concentration, N. gonorrhoeae FA1090.
Setting [3] is: fluorescence polarization competition binding with Bocillin-FL, read-out: E. coli K12 PBP3 Potency.
The mark [4] stands for this setting: ATCC35151, hyper-permeable P. aeruginosa ATCC 35151, read-out: MIC P. aeruginosa ATCC 35151.
The mark [5] stands for this setting: ATCC19606, A. baumannii ATCC 19606, broth microdilution, read-out: MIC A. baumannii ATCC 19606.

For `CCN1CCN(C(=O)NC(C(=O)N[C@H]2Cc3cccc(C(=O)O)c3OB2O)c2ccc(S(N)(=O)=O)cc2)C(=O)C1=O` (stereo partly drawn) [Example 102, (3R)-3-(2-(4-ethyl-2,3-dioxopiperazine-1-carboxamido)-2-(4-sulfamoylphenyl)acetamido)-2-hydroxy-3,4-dihydro-2H-benzo[e][1,2]oxaborinine-8-carboxylic acid], the MIC in the test with N. gonorrhoeae FA1090 (setting [2]) is less than 0.125 µg/mL. In addition, at E. coli PBP3 (setting [3]), the EC50 was less than 30 µM.

On to `NS(=O)(=O)c1ccc(C(NC(=O)N2CCN(CCF)C(=O)C2=O)C(=O)N[C@H]2Cc3cccc(C(=O)O)c3OB2O)cc1` (stereo partly drawn) [Example 103, (3R)-3-(2-(4-(2-fluoroethyl)-2,3-dioxopiperazine-1-carboxamido)-2-(4-sulfamoylphenyl)acetamido)-2-hydroxy-3,4-dihydro-2H-benzo[e][1,2]oxaborinine-8-carboxylic acid], for which, in the test on N. gonorrhoeae FA1090 (setting [2]), the MIC was less than 0.125 µg/mL. Further, the EC50 on E. coli PBP3 (setting [3]) is less than 30 µM.

On to `CCN1CCN(C(=O)NC(C(=O)N[C@H]2Cc3cccc(C(=O)O)c3OB2O)c2cccc(N)n2)C(=O)C1=O` (stereo partly drawn) [Example 104, (3R)-3-(2-(6-aminopyridin-2-yl)-2-(4-ethyl-2,3-dioxopiperazine-1-carboxamido)acetamido)-2-hydroxy-3,4-dihydro-2H-benzo[e][1,2]oxaborinine-8-carboxylic acid], for which, on E. coli PBP3 (setting [3]), the EC50 is less than 30 µM.

On to `CCN1CCN(C(=O)NC(C(=O)N[C@H]2Cc3cccc(C(=O)[O-])c3OB2O)c2ccc[n+](CC(N)=O)c2)C(=O)C1=O` (stereo partly drawn) [Example 107, (3R)-3-(2-(1-(2-amino-2-oxoethyl)pyridin-1-ium-3-yl)-2-(4-ethyl-2,3-dioxopiperazine-1-carboxamido)acetamido)-2-hydroxy-3,4-dihydro-2H-benzo[e][1,2]oxaborinine-8-carboxylate], for which, at E. coli PBP3 (setting [3]), the EC50 was greater than 500 µM.

For the compound `CCN1CCN(C(=O)NC(C(=O)N[C@H]2Cc3ccc(F)c(C(=O)O)c3OB2O)c2csc(N)n2)C(=O)C1=O` (stereo partly drawn) [Example 109, (3R)-3-(2-(2-aminothiazol-4-yl)-2-(4-ethyl-2,3-dioxopiperazine-1-carboxamido)acetamido)-7-fluoro-2-hydroxy-3,4-dihydro-2H-benzo[e][1,2]oxaborinine-8-carboxylic acid], the MIC in the test with N. gonorrhoeae FA1090 (setting [2]) lay in the range of 0.25 to 0.5 µg/mL (≈ 0.456 to 0.912 µM). Moreover, the EC50 at E. coli PBP3 (setting [3]) was less than 30 µM.

On to `CCN1CCN(C(=O)NC(C(=O)N[C@H]2Cc3cccc(C(=O)O)c3OB2O)c2ccc(B(O)O)cc2)C(=O)C1=O` (some centres unmarked) [Example 112], for which, in the test on N. gonorrhoeae FA1090 (setting [2]), the MIC was less than 0.125 µg/mL. The compound also registered an EC50 at E. coli PBP3 of 30 to 500 µM.

As for `O=C(O)c1cccc2c1OB(O)[C@@H](NC(=O)C(NC(=O)N1CCN(CCF)C(=O)C1=O)c1ccc(B(O)O)cc1)C2` (stereo partly drawn) [Example 113, (3R)-3-(2-(4-boronophenyl)-2-(4-(2-fluoroethyl)-2,3-dioxopiperazine-1-carboxamido)acetamido)-2-hydroxy-3,4-dihydro-2H-benzo[e][1,2]oxaborinine-8-carboxylic acid], in the test with N. gonorrhoeae FA1090 (setting [2]), the MIC is less than 0.125 µg/mL. The EC50 at E. coli PBP3 lay within 30 to 500 µM.

Take `CCN1CCN(C(=O)NC(C(=O)N[C@H]2Cc3cccc(C(=O)O)c3OB2O)c2cccs2)C(=O)C1=O` (stereo partly drawn) [Example 115, (3R)-3-(2-(4-ethyl-2,3-dioxopiperazine-1-carboxamido)-2-(thiophen-2-yl)acetamido)-2-hydroxy-3,4-dihydro-2H-benzo[e][1,2]oxaborinine-8-carboxylic acid]: the EC50 on E. coli PBP3 (setting [3]) was less than 30 µM.

Consider `CCN1CCN(C(=O)NC(C(=O)N[C@H]2Cc3cccc(C(=O)O)c3OB2O)c2ncc(O)cc2F)C(=O)C1=O` (stereo partly drawn) [Example 135, (3R)-3-(2-(4-ethyl-2,3-dioxopiperazine-1-carboxamido)-2-(3-fluoro-5-hydroxypyridin-2-yl)acetamido)-2-hydroxy-3,4-dihydro-2H-benzo[e][1,2]oxaborinine-8-carboxylic acid], for which the MIC with N. gonorrhoeae FA1090 (setting [2]) was less than 0.125 µg/mL. In addition, at E. coli PBP3 (setting [3]), the EC50 is less than 30 µM.

As for `NCCCN1CCN(C(=O)NC(C(=O)N[C@H]2Cc3cccc(C(=O)O)c3OB2O)c2ccc(O)c(O)c2Cl)C(=O)C1=O` (stereo partly drawn) [Example 233, (3R)-3-(2-(4-(3-aminopropyl)-2,3-dioxopiperazine-1-carboxamido)-2-(2-chloro-3,4-dihydroxyphenyl)acetamido)-2-hydroxy-3,4-dihydro-2H-benzo[e][1,2]oxaborinine-8-carboxylic acid], the MIC with P. aeruginosa ATCC 35151 (setting [4]) was less than 0.25 µg/mL; in test [1], less than 0.25 µg/mL; with N. gonorrhoeae FA1090 (setting [2]), 1 to 2 µg/mL (≈ 1.66 to 3.31 µM); with A. baumannii ATCC 19606 (setting [5]) it was 2 to 4 µg/mL. The compound further displayed an EC50 on E. coli PBP3 of 30 to 500 µM.

`CCN1C[C@H](CO)N(C(=O)NC(C(=O)N[C@H]2Cc3cccc(C(=O)O)c3OB2O)c2ncc(O)cc2F)C(=O)C1=O` (stereo partly drawn) [Example 234, (3R)-3-(2-((R)-4-ethyl-6-(hydroxymethyl)-2,3-dioxopiperazine-1-carboxamido)-2-(3-fluoro-5-hydroxypyridin-2-yl)acetamido)-2-hydroxy-3,4-dihydro-2H-benzo[e][1,2]oxaborinine-8-carboxylic acid]: the MIC in the test with P. aeruginosa ATCC 35151 (setting [4]) is 8 to 16 µg/mL; in test [1] it was 32 to 64 µg/mL; with N. gonorrhoeae FA1090 (FA1090, read-out: Minimum Inhibitory Concentration, N. gonorrhoeae FA1090) it was 0.25 to 0.5 µg/mL (≈ 0.436 to 0.872 µM); in the test on A. baumannii ATCC 19606 (ATCC19606, read-out: MIC A. baumannii ATCC 19606), greater than 128 µg/mL. Besides, on E. coli PBP3 (setting [3]), the EC50 was less than 30 µM.

For the compound `CCNC(=O)NCCN1CCN(C(=O)NC(C(=O)N[C@H]2Cc3cccc(C(=O)O)c3OB2O)c2ccc(O)c(O)c2Cl)C(=O)C1=O` (stereo partly drawn) [Example 235, (3R)-3-(2-(2-chloro-3,4-dihydroxyphenyl)-2-(4-(2-(3-ethylureido)ethyl)-2,3-dioxopiperazine-1-carboxamido)acetamido)-2-hydroxy-3,4-dihydro-2H-benzo[e][1,2]oxaborinine-8-carboxylic acid], the MIC is less than 0.25 µg/mL in the test with P. aeruginosa ATCC 35151 (setting [4]), less than 0.25 µg/mL in test [1], 1 to 2 µg/mL (≈ 1.51 to 3.03 µM) in the test on N. gonorrhoeae FA1090 (setting [2]) and 0.5 to 1 µg/mL in the test on A. baumannii ATCC 19606 (setting [5]). Besides, the EC50 at E. coli PBP3 (setting [3]) is less than 30 µM.

Turning to `NCCCN1CCN(C(=O)N[C@@H](C(=O)N[C@H]2Cc3ccc(F)c(C(=O)O)c3OB2O)c2ccc(O)c(O)c2Cl)C(=O)C1=O` [Example 236, (R)-3-((R)-2-(4-(3-aminopropyl)-2,3-dioxopiperazine-1-carboxamido)-2-(2-chloro-3,4-dihydroxyphenyl)acetamido)-7-fluoro-2-hydroxy-3,4-dihydro-2H-benzo[e][1,2]oxaborinine-8-carboxylic acid], the MIC in the test on P. aeruginosa ATCC 35151 (setting [4]) is less than 0.25 µg/mL; in test [1], less than 0.25 µg/mL; in the test with N. gonorrhoeae FA1090 (setting [2]), 1 to 2 µg/mL (≈ 1.61 to 3.22 µM); in the test with A. baumannii ATCC 19606 (setting [5]), less than 0.25 µg/mL. The same compound returned an EC50 on E. coli PBP3 of 30 to 500 µM.

With `CCN1C[C@H](CO)N(C(=O)NC(C(=O)N[C@H]2Cc3ccc(F)c(C(=O)O)c3OB2O)c2ccc(O)c(O)c2Cl)C(=O)C1=O` (stereo partly drawn) [Example 237, (3R)-3-(2-(2-chloro-3,4-dihydroxyphenyl)-2-((R)-4-ethyl-6-(hydroxymethyl)-2,3-dioxopiperazine-1-carboxamido)acetamido)-7-fluoro-2-hydroxy-3,4-dihydro-2H-benzo[e][1,2]oxaborinine-8-carboxylic acid], the MIC is less than 0.25 µg/mL in the test on P. aeruginosa ATCC 35151 (setting [4]), less than 0.25 µg/mL in test [1], 1 to 2 µg/mL (≈ 1.61 to 3.21 µM) in the test on N. gonorrhoeae FA1090 (setting [2]) and less than 0.25 µg/mL in the test on A. baumannii ATCC 19606 (setting [5]). Further, on E. coli PBP3 (setting [3]), the EC50 was less than 30 µM.

As to `CCN1C[C@H](CCN)N(C(=O)NC(C(=O)N[C@H]2Cc3ccc(F)c(C(=O)O)c3OB2O)c2ccc(O)c(O)c2Cl)C(=O)C1=O` (stereo partly drawn) [Example 238, (3R)-3-(2-((S)-6-(2-aminoethyl)-4-ethyl-2,3-dioxopiperazine-1-carboxamido)-2-(2-chloro-3,4-dihydroxyphenyl)acetamido)-7-fluoro-2-hydroxy-3,4-dihydro-2H-benzo[e][1,2]oxaborinine-8-carboxylic acid], the MIC is less than 0.25 µg/mL in the test with P. aeruginosa ATCC 35151 (ATCC35151, read-out: MIC P. aeruginosa ATCC 35151); less than 0.25 µg/mL in test [1]; 4 to 8 µg/mL (≈ 6.29 to 12.6 µM) with N. gonorrhoeae FA1090 (setting [2]); 0.5 to 1 µg/mL in the test with A. baumannii ATCC 19606 (setting [5]). Besides, at E. coli PBP3, the EC50 was 30 to 500 µM.

For the compound `CNCCN1CCN(C(=O)NC(C(=O)N[C@H]2Cc3cccc(C(=O)O)c3OB2O)c2ccc(O)c(O)c2Cl)C(=O)C1=O` (stereo partly drawn) [Example 239, (3R)-3-(2-(2-chloro-3,4-dihydroxyphenyl)-2-(4-(2-(methylamino)ethyl)-2,3-dioxopiperazine-1-carboxamido)acetamido)-2-hydroxy-3,4-dihydro-2H-benzo[e][1,2]oxaborinine-8-carboxylic acid], the MIC in the test with P. aeruginosa ATCC 35151 (setting [4]) was less than 0.25 µg/mL; in test [1], less than 0.25 µg/mL; in the test on N. gonorrhoeae FA1090 (setting [2]), 4 to 8 µg/mL (≈ 6.62 to 13.2 µM); in the test on A. baumannii ATCC 19606 (setting [5]) it was 0.5 to 1 µg/mL. On E. coli PBP3, the EC50 lay within 30 to 500 µM.
